Values quoted from earlier work in US20020132296A1, “Human Ste20-like stress activated serine/threonine kinase” (priority 1997, published 2002).

Key:
[1] = system: LPS-stimulated macrophages
[2] = system: TNF-stimulated HUVECs

Structure (SMILES): C[S+]([O-])c1ccc(-c2nc(-c3ccncc3)c(-c3ccc(F)cc3)[nH]2)cc1 (centres unmarked) [SB203580]
- production of TNF and IL-1 [1]: inhibit
- production of TNF, IL-6 and IL-8 [2]: inhibit
